Test results as given in patent publication US20240383871A1, “COMPOUND USEFUL FOR PET-IMAGING OF BRUTON’S TYROSINE KINASE” (Bristol-Myers Squibb Company, priority 2021, published 2024).

Assay: In-vivo PET imaging in rhesus monkey to determine brain penetrance
Settings: healthy rhesus monkey
Excerpt: The non-human primate was kept immobilized in the extended imaging bed inside the gantry of the PET imaging system (MicroPET® P4, Siemens Preclinical Solutions, Knoxville, TN). The scanning region was a single bed position from approximately the top of skull and extending through the lower neck area, to fit into the 7.6 cm MicroPET system axial FOV. A 10-minute transmission scan was acquired using a ^57Co point source for the purpose of attenuation correction of the subsequent emission image. Approximately 0.96 mCi of [^11C]-(R)-4-(2-acryloyl-1,2,3,4-tetrahydroisoquinolin-5-yl)-5-fluoro-2,3-dimethyl-1H-indole-7-carboxamide was injected IV and a 60-minute dynamic PET image was acquired. PET images were reconstructed with a filtered back projection (FBP) or MAP algorithm with attenuation correction. Using the AMIDE software package, an ROI encompassing the whole brain was manually drawn in the PET images. Mean standardized uptake value (SUV), which is normalized with body weight (kg) and injected dose (mCi), was calculated and plotted as a function of time to obtain a TAC. […] In healthy rhesus monkey, as in WT mice. there is very low brain expression of BTK in a non-diseased state.

- brain penetrance (baseline (PET ligand only), IV, 0-60 minutes): confirmed brain penetrance
Compound: C=C[11C](=O)N1CCc2c(cccc2-c2c(F)cc(C(N)=O)c3[nH]c(C)c(C)c23)C1 [[^11C]-(R)-4-(2-acryloyl-1,2,3,4-tetrahydroisoquinolin-5-yl)-5-fluoro-2,3-dimethyl-1H-indole-7-carboxamide]
- brain time-activity curve (TAC) behaviour: rapid brain penetration followed by washout
- brain uptake pattern (summed images 0-60 minutes post injection (FIG. 7)): Diffuse uptake was observed throughout the brain
